US12185750B2, “Acyl nornicotines reduce sensory irritation in tobacco and nicotine products” (Altria Client Services LLC, priority 2015, dated 2025)
Like-named read-outs stand apart in the source and are kept apart here.

Experiments:
[1] = system: nicotine triggered release of CGRP in buccal tissue; test: nicotine triggered CGRP release in mouse buccal tissue; assay type: cell-based; conditions: for effect on buccal nicotine response (CGRP release): 20 mM compound, Nicotine 20 mM, equimolar, FIG. 8
Procedure: Mouse buccal tissue samples are treated with 10 μM or 1 μM of N-Hexanoylnornicotine for 10 minutes. After five minutes of exposure, Nicotine (10 mM) is added to the buccal tissue samples for five minutes. CGRP release is measured for 15 minutes starting at the time point of N-Hexanoylnornicotine exposure. Control samples are exposed to Nicotine (10 mM) without the addition of N-Hexanoylnornicotine.
Mouse buccal tissue samples were treated with N-Hexanoylnornicotine (20 mM) or N-Octanoylnornicotine (20 mM) for 10 minutes. After 5 minutes of exposure, Nicotine (20 mM) was added to the […] tissue samples for five minutes. CGRP release is measured for 20 minutes starting five minutes prior to the time point of N-Octanoylnornicotine and N-Hexanoylnornicotine exposure. Control samples are exposed to Nicotine (20 mM) without the addition of N-Octanoylnornicotine or N-Hexanoylnornicotine.
(§1) FIGS. 2-8 show the results of studies on the effect of acyl nornicotine on nicotine triggered release of CGRP. CGRP is a biomarker of sensory irritation, specifically a marker of neurogenic inflammation. Tracheal or buccal mouse tissue samples were each treated with N-Hexanoylnornicotine or N-Octanoylnornicotine prior to exposure to nicotine or potassium chloride (KCl), used as a control. The test compounds were provided in a synthetic interstitial fluid and the release of CGRP was measured.

[2] = system: tracheal potassium chloride (KCl) response; test: KCl triggered CGRP release in mouse tracheal tissue (control); assay type: cell-based; conditions: 10 μM compound, KCl 60 mM, FIG. 3
Procedure: As in FIG. 2, mouse tracheal tissue samples are treated with N-Hexanoylnornicotine (10 μM) for 10 minutes. After five minutes of exposure, KCl (60 mM) is added to the tracheal tissue samples for the remaining five minutes N-Hexanoylnornicotine exposure. CGRP release is measured for 15 minutes starting at the time point of N-Hexanoylnornicotine exposure. Control samples are exposed to KCl (60 mM) without the addition of N-Hexanoylnornicotine.
as §1

[3] = system: nicotine triggered release of CGRP in tracheal tissue; test: nicotine triggered CGRP release in mouse tracheal tissue; assay type: cell-based
Procedure: Mouse tracheal tissue samples are treated with N-Hexanoylnornicotine (10 μM) for 10 minutes. After five minutes of exposure, Nicotine (100 μM) is added to the tracheal tissue samples for the remaining five minutes of N-Hexanoylnornicotine exposure. CGRP release is measured for 15 minutes starting at the time point of N-Hexanoylnornicotine exposure. Control samples are exposed to Nicotine (100 μM) without the addition of N-Hexanoylnornicotine. […]
as §1

[4] = biological target: T1, human nicotinic acetylcholine receptor α3β4 (nACHR α3β4) (Homo sapiens, UniProt P30926+P32297); test: calcium influx in HEK293 cells expressing nACHR α3β4, co-applied with nicotine; assay type: cell-based
T1 construct: expressed in transfected cells; host or cells: HEK293
T1 sequence (P32297 32-505): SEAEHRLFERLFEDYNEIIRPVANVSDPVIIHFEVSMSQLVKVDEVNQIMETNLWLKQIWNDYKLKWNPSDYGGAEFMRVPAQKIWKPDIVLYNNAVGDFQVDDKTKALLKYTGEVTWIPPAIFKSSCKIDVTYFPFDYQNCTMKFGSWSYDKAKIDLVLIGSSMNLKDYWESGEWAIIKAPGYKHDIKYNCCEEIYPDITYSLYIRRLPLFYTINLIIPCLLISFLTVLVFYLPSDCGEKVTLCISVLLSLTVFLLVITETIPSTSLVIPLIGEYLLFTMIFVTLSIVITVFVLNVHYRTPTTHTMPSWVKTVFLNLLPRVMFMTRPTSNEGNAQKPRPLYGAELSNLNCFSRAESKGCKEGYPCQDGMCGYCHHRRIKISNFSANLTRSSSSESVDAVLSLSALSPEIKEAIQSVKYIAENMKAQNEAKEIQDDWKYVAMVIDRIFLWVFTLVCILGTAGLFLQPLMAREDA
T1 sequence (P30926 22-498): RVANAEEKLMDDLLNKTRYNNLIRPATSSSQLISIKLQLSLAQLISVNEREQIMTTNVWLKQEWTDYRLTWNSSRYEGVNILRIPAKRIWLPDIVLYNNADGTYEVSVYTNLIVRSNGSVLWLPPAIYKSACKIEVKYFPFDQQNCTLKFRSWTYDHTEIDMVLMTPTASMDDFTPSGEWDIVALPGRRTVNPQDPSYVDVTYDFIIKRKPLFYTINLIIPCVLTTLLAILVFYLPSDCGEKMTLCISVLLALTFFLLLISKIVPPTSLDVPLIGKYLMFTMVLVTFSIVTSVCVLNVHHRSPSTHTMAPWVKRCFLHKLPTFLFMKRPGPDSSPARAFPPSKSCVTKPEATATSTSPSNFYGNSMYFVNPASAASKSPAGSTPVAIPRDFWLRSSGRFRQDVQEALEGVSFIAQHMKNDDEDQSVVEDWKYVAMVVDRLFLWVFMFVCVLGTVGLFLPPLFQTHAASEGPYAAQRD
Procedure: Human cell line HEK293 were designed to express human nicotinic acetylcholine receptor α3β4 (nACHR α3β4), which is a receptor associated with sensory irritation. These cells were plated on 96 well plates and acyl nornicotines were co-applied with a concentration of nicotine sufficient to yield 100% cell activation of the receptor. The influx of calcium into the cell is measured as an indicator of receptor activation.

[5] = half-tongue test: acyl nornicotine pre-treatment before nicotine solution; assay type: in vivo, human
Procedure: The effect of pre-treatment with acyl nornicotine on sensory irritation from nicotine was tested using half-tongue test. N-Octanoylnornicotine was applied to tongues of human volunteers prior to application of a nicotine solution. Randomized sides of tongues were selected for application of liquid test sample or liquid control sample on filter paper. The liquid test sample or liquid control sample was applied to one side of a subject's tongue or the other. Blinded N-Octanoylnornicotine or water on filter paper was applied to the subject's tongue for 2 minutes, and then removed. […] After a 30 second wait, filter papers with added nicotine solutions were applied to the spots on the tongue where the pre-treatment filter papers had been applied. Over the following 2 minutes, subjects were asked to note sensory perceptions. Samples containing N-Octanoylnornicotine were at 10% of the level of the nicotine challenge samples.

[6] = HEK293 nACHR α3β4, calcium influx

Row | SMILES | effect on buccal supramaximal nicotine response (TRPA1/V1 mediated, CGRP release) ([1]; 10 μM compound, Nicotine 10 mM, FIG. 5) | effect on buccal nicotine response (CGRP release) [1] | effect on tracheal KCl response (CGRP release) [2] | effect on specific tracheal nicotine response (CGRP release) ([3]; 10 μM compound, Nicotine 100 μM, FIG. 2) | effect on tracheal supramaximal nicotine response (TRPA1/V1 mediated, CGRP release) ([3]; 10 μM compound, Nicotine 10 mM, FIG. 4) | calcium influx inhibited ([4]; 1:1 acyl nornicotine:nicotine) | calcium influx inhibited ([4]; 1:10 acyl nornicotine:nicotine) | Activation (threshold) [4, 6] | IC50 ([4]; HEK293 nACHR α3β4, calcium influx, v 70 μM nicotine, read-out: Inhibition (IC50 v 70 μM nicotine)) | sensation from the compound itself on the tongue ([5]; applied on filter paper for 2 minutes, human volunteers) | irritation/burn from nicotine after pre-treatment ([5]; compound at 10% of the level of the nicotine challenge, versus water side) | effect on specific tracheal nicotinic response (CGRP release) ([3]; 100 μM compound, Nicotine 100 μM, equimolar, FIG. 6) | effect on basal tracheal response (CGRP release) ([3]; 100 μM compound, before nicotine, FIG. 6) | effect on specific and supramaximal tracheal nicotine response (CGRP release) ([3]; 10 mM compound, Nicotine 10 mM, equimolar, FIG. 7) | relative potency, C8 versus C6 acyl nornicotine ([3]; CGRP release in mouse tissue (tracheal/buccal not specified)) | IC50 [4] | calcium influx inhibited ([4]; 1:100 acyl nornicotine:nicotine) | relative potency, C8 versus C6 acyl nornicotine ([4]; calcium influx, co-applied with nicotine)
1 | CCCCCC(=O)N1CCCC1c1cccnc1 (stereo not drawn) [N-Hexanoylnornicotine] | does not change the buccal supramaximal nicotine response | prevent the buccal nicotine response | does not change the KCl response | abolishes the specific tracheal nicotine response | does not change the tracheal supramaximal nicotine response | 100% | 50% | 10 mM | 5 µM |  |  |  |  |  |  |  |  | 
2 | CCCCCCCC(=O)N1CCCC1c1cccnc1 (stereo not drawn) [N-Octanoylnornicotine] |  | prevent the buccal nicotine response |  |  |  |  | 100% | 1 mM |  | tingling or burning sensation | obvious reduction in irritation/burn | abrogates the specific tracheal nicotinic response | lowers basal tracheal nicotine response | abrogates the specific and supramaximal nicotine response | more potent than a shorter chain (C6) acyl nornicotine | 0.5 µM | 50% | more potent than shorter chain (C6) acyl nornicotine
